{
  "source": "patent US20220401573A1",
  "about": "“COMPOSITION AND METHOD FOR TREATMENT OF MULTIPLE SCLEROSIS” (Wuhan Vast Conduct Science Foundation CO., LTD., priority 2019, published 2022)",
  "test_system": "EAE mice",
  "assay": "Clinical scoring of MOG-induced EAE in mice",
  "assay_type": "in vivo, C57BL/6N female mice",
  "conditions": "10 mg/kg p.o., day 1 to day 28, positive control, FIG. 10",
  "experimental": "C57BL/6N female mice, 7-9 weeks old, were used. Animals were housed and maintained in compliance with the regulations.\nOn Day 0, mice were grouped randomly by body weight, and then injected subcutaneously with 200 μg of myelin oligodendrocyte glycoprotein (MOG) peptide in complete Freund's adjuvant (CFA) into the right and left flank, 100 μl per site. Pertussis toxin (PTX) injected by i.p at 0 and 48 hours after MOG immunization. Compounds were given from day 1 to day 28 according to Table 2. The animals (n=10) were scored daily for clinical signs of EAE. At the end of the experiments, spinal cords were used for HE staining (n=5), and analysis of TNF-α, IL-17, IFN-γ by Elisa kit.\nThe animals were scored daily for clinical signs of EAE according to the Clinical scoring rubric for EAE (Table 3).",
  "data": [
    {"smiles": "C[C@]12C=CC(=O)C=C1CC[C@@H]1[C@@H]2C(=O)C[C@@]2(C)[C@H]1CC[C@]2(O)C(=O)CO", "note": "[prednisone, Prednisone]", "values": [
      {"measurement": "clinical signs of EAE (clinical score)", "result": "significantly reduced clinical signs of EAE from day 13th"}
    ]}
  ]
}
